Assay results reported in PubChem BioAssay (NCI).
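Five concentrations, 48 hours, 96-well plates. The concentration for full growth arrest is given as TGI.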

Key:
Assay in all cases: inhibition of tumour cell growth, NCI panel, 48 h
K-562 leukemia = test system: K-562 leukemia
786-0 renal = test system: 786-0 renal
EKVX NSCLC = test system: EKVX NSCLC
OVCAR-8 ovarian = test system: OVCAR-8 ovarian
SF-539 CNS = test system: SF-539 CNS
LXFL 529 NSCLC = test system: LXFL 529 NSCLC
OVCAR-3 ovarian = test system: OVCAR-3 ovarian
SK-MEL-5 melanoma = test system: SK-MEL-5 melanoma
DMS 273 small cell lung = test system: DMS 273 small cell lung
HCC-2998 colon = test system: HCC-2998 colon
ACHN renal = test system: ACHN renal
NCI-H522 lung = test system: NCI-H522 lung
RPMI-8226 leukemia = test system: RPMI-8226 leukemia
HCT-15 colon = test system: HCT-15 colon
CCRF-CEM leukemia = test system: CCRF-CEM leukemia
NCI-H226 lung = test system: NCI-H226 lung
DMS 114 small cell lung = test system: DMS 114 small cell lung
U251 CNS = test system: U251 CNS
HL-60(TB) leukemia = test system: HL-60(TB) leukemia
COLO 205 colon = test system: COLO 205 colon
CAKI-1 renal = test system: CAKI-1 renal
SK-MEL-2 melanoma = test system: SK-MEL-2 melanoma
MALME-3M melanoma = test system: MALME-3M melanoma
SK-OV-3 ovarian = test system: SK-OV-3 ovarian
MOLT-4 leukemia = test system: MOLT-4 leukemia
UACC-257 melanoma = test system: UACC-257 melanoma
HT29 colon = test system: HT29 colon
DLD-1 colon = test system: DLD-1 colon
OVCAR-5 ovarian = test system: OVCAR-5 ovarian
KM12 colon = test system: KM12 colon
TK-10 renal = test system: TK-10 renal
RXF 393 renal = test system: RXF 393 renal
UACC-62 melanoma = test system: UACC-62 melanoma
LOX IMVI melanoma = test system: LOX IMVI melanoma
A549 NSCLC = test system: A549 NSCLC
OVCAR-4 ovarian = test system: OVCAR-4 ovarian
SW-620 colon = test system: SW-620 colon
UO-31 renal = test system: UO-31 renal
M14 melanoma = test system: M14 melanoma
SNB-19 CNS = test system: SNB-19 CNS
NCI-H23 lung = test system: NCI-H23 lung
RXF-631 renal = test system: RXF-631 renal
IGROV1 ovarian = test system: IGROV1 ovarian
SNB-78 CNS = test system: SNB-78 CNS
A498 renal = test system: A498 renal
SF-295 CNS = test system: SF-295 CNS
HOP-62 NSCLC = test system: HOP-62 NSCLC
SN12C renal = test system: SN12C renal
HOP-18 NSCLC = test system: HOP-18 NSCLC
M19-MEL melanoma = test system: M19-MEL melanoma
SNB-75 CNS = test system: SNB-75 CNS
HOP-92 NSCLC = test system: HOP-92 NSCLC
HCT-116 colon = test system: HCT-116 colon
XF 498 CNS = test system: XF 498 CNS
SK-MEL-28 melanoma = test system: SK-MEL-28 melanoma
SR leukemia = test system: SR leukemia
KM20L2 colon = test system: KM20L2 colon
SF-268 CNS = test system: SF-268 CNS
MDA-N = test system: MDA-N
MDA-MB-231 breast = test system: MDA-MB-231 breast
T-47D breast = test system: T-47D breast
BT-549 breast = test system: BT-549 breast
NCI-H460 lung = test system: NCI-H460 lung
MCF7 breast = test system: MCF7 breast
DU-145 prostate = test system: DU-145 prostate
NCI/ADR-RES ovarian = test system: NCI/ADR-RES ovarian
PC-3 prostate = test system: PC-3 prostate
HS 578T breast = test system: HS 578T breast
MDA-MB-435 = test system: MDA-MB-435

Structure (SMILES): CCOC(=O)c1ccc(N=Nc2ccc(N(CCC#N)CCC#N)cc2C)cc1
- TGI (K-562 leukemia): > 100 µM
- TGI (786-0 renal): > 100 µM
- TGI (EKVX NSCLC): > 100 µM
- TGI (OVCAR-8 ovarian): > 100 µM
- TGI (SF-539 CNS): > 100 µM
- TGI (LXFL 529 NSCLC): > 100 µM
- TGI (OVCAR-3 ovarian): > 100 µM
- TGI (SK-MEL-5 melanoma): > 100 µM
- TGI (DMS 273 small cell lung): > 100 µM
- TGI (HCC-2998 colon): > 100 µM
- TGI (ACHN renal): > 100 µM
- TGI (NCI-H522 lung): > 100 µM
- TGI (RPMI-8226 leukemia): > 100 µM
- TGI (HCT-15 colon): > 100 µM
- TGI (CCRF-CEM leukemia): > 100 µM
- TGI (NCI-H226 lung): > 100 µM
- TGI (DMS 114 small cell lung): > 100 µM
- TGI (U251 CNS): > 100 µM
- TGI (HL-60(TB) leukemia): > 100 µM
- TGI (COLO 205 colon): > 100 µM
- TGI (CAKI-1 renal): > 100 µM
- TGI (SK-MEL-2 melanoma): > 100 µM
- TGI (MALME-3M melanoma): > 100 µM
- TGI (SK-OV-3 ovarian): > 100 µM
- TGI (MOLT-4 leukemia): > 100 µM
- TGI (UACC-257 melanoma): > 100 µM
- TGI (HT29 colon): > 100 µM
- TGI (DLD-1 colon): > 100 µM
- TGI (OVCAR-5 ovarian): > 100 µM
- TGI (KM12 colon): > 100 µM
- TGI (TK-10 renal): > 100 µM
- TGI (RXF 393 renal): > 100 µM
- TGI (UACC-62 melanoma): > 100 µM
- TGI (LOX IMVI melanoma): > 100 µM
- TGI (A549 NSCLC): > 100 µM
- TGI (OVCAR-4 ovarian): > 100 µM
- TGI (SW-620 colon): > 100 µM
- TGI (UO-31 renal): > 100 µM
- TGI (M14 melanoma): > 100 µM
- TGI (SNB-19 CNS): > 100 µM
- TGI (NCI-H23 lung): > 100 µM
- TGI (RXF-631 renal): > 100 µM
- TGI (IGROV1 ovarian): > 100 µM
- TGI (SNB-78 CNS): > 100 µM
- TGI (A498 renal): > 100 µM
- TGI (SF-295 CNS): > 100 µM
- TGI (HOP-62 NSCLC): > 100 µM
- TGI (SN12C renal): > 100 µM
- TGI (HOP-18 NSCLC): > 100 µM
- TGI (M19-MEL melanoma): > 100 µM

Structure (SMILES): O=C(NCCc1ccccc1)C1C(=O)C(=O)N(CCc2ccccc2)C1=O (stereo unspecified)
- TGI (K-562 leukemia): > 100 µM
- TGI (786-0 renal): > 100 µM
- TGI (EKVX NSCLC): > 100 µM
- TGI (SF-539 CNS): > 100 µM
- TGI (LXFL 529 NSCLC): > 100 µM
- TGI (OVCAR-3 ovarian): > 100 µM
- TGI (DMS 273 small cell lung): > 100 µM
- TGI (SNB-75 CNS): > 100 µM
- TGI (ACHN renal): > 100 µM
- TGI (NCI-H522 lung): > 100 µM
- TGI (RPMI-8226 leukemia): > 100 µM
- TGI (HCT-15 colon): > 100 µM
- TGI (CCRF-CEM leukemia): > 100 µM
- TGI (NCI-H226 lung): > 100 µM
- TGI (HOP-92 NSCLC): > 100 µM
- TGI (U251 CNS): > 100 µM
- TGI (HL-60(TB) leukemia): > 100 µM
- TGI (HCT-116 colon): > 100 µM
- TGI (CAKI-1 renal): > 100 µM
- TGI (SK-MEL-2 melanoma): > 100 µM
- TGI (MALME-3M melanoma): > 100 µM
- TGI (SK-OV-3 ovarian): > 100 µM
- TGI (MOLT-4 leukemia): > 100 µM
- TGI (UACC-257 melanoma): > 100 µM
- TGI (HT29 colon): > 100 µM
- TGI (DLD-1 colon): > 100 µM
- TGI (XF 498 CNS): > 100 µM
- TGI (KM12 colon): > 100 µM
- TGI (TK-10 renal): > 100 µM
- TGI (UACC-62 melanoma): > 100 µM
- TGI (SK-MEL-28 melanoma): > 100 µM
- TGI (LOX IMVI melanoma): > 100 µM
- TGI (A549 NSCLC): > 100 µM
- TGI (SR leukemia): > 100 µM
- TGI (SW-620 colon): > 100 µM
- TGI (UO-31 renal): > 100 µM
- TGI (M14 melanoma): > 100 µM
- TGI (SNB-19 CNS): > 100 µM
- TGI (NCI-H23 lung): > 100 µM
- TGI (RXF-631 renal): > 100 µM
- TGI (IGROV1 ovarian): > 100 µM
- TGI (SNB-78 CNS): > 100 µM
- TGI (KM20L2 colon): > 100 µM
- TGI (SF-295 CNS): > 100 µM
- TGI (SF-268 CNS): > 100 µM
- TGI (SN12C renal): > 100 µM
- TGI (M19-MEL melanoma): > 100 µM

Structure (SMILES): O=C1c2ccccc2C(=O)c2c(NC3CCCCC3)ccc(Nc3ccc(S(=O)(=O)O)cc3)c21
- TGI (K-562 leukemia): > 100 µM
- TGI (786-0 renal): > 100 µM
- TGI (EKVX NSCLC): 64.4 µM
- TGI (OVCAR-8 ovarian): > 100 µM
- TGI (SF-539 CNS): > 100 µM
- TGI (MDA-N): > 100 µM
- TGI (OVCAR-3 ovarian): > 100 µM
- TGI (SK-MEL-5 melanoma): > 100 µM
- TGI (HCC-2998 colon): 71.1 µM
- TGI (SNB-75 CNS): > 100 µM
- TGI (ACHN renal): > 100 µM
- TGI (NCI-H522 lung): 52.5 µM
- TGI (RPMI-8226 leukemia): > 100 µM
- TGI (HCT-15 colon): > 100 µM
- TGI (CCRF-CEM leukemia): > 100 µM
- TGI (MDA-MB-231 breast): 69.9 µM
- TGI (NCI-H226 lung): > 100 µM
- TGI (HOP-92 NSCLC): > 100 µM
- TGI (T-47D breast): > 100 µM
- TGI (BT-549 breast): > 100 µM
- TGI (NCI-H460 lung): > 100 µM
- TGI (U251 CNS): 88.7 µM
- TGI (HL-60(TB) leukemia): 99.8 µM
- TGI (HCT-116 colon): > 100 µM
- TGI (COLO 205 colon): 53.1 µM
- TGI (CAKI-1 renal): > 100 µM
- TGI (MCF7 breast): 86.8 µM
- TGI (SK-MEL-2 melanoma): 99.8 µM
- TGI (MALME-3M melanoma): 58.7 µM
- TGI (SK-OV-3 ovarian): > 100 µM
- TGI (MOLT-4 leukemia): > 100 µM
- TGI (DU-145 prostate): > 100 µM
- TGI (UACC-257 melanoma): 63.7 µM
- TGI (HT29 colon): > 100 µM
- TGI (OVCAR-5 ovarian): > 100 µM
- TGI (KM12 colon): > 100 µM
- TGI (TK-10 renal): > 100 µM
- TGI (NCI/ADR-RES ovarian): > 100 µM
- TGI (RXF 393 renal): > 100 µM
- TGI (UACC-62 melanoma): > 100 µM
- TGI (PC-3 prostate): 83 µM
- TGI (SK-MEL-28 melanoma): > 100 µM
- TGI (HS 578T breast): > 100 µM
- TGI (LOX IMVI melanoma): > 100 µM
- TGI (MDA-MB-435): > 100 µM
- TGI (A549 NSCLC): > 100 µM
- TGI (SR leukemia): > 100 µM
- TGI (OVCAR-4 ovarian): > 100 µM
- TGI (SW-620 colon): > 100 µM
- TGI (UO-31 renal): > 100 µM
- TGI (M14 melanoma): > 100 µM
- TGI (SNB-19 CNS): > 100 µM
- TGI (NCI-H23 lung): > 100 µM
- TGI (IGROV1 ovarian): > 100 µM
- TGI (A498 renal): > 100 µM
- TGI (SF-295 CNS): > 100 µM
- TGI (HOP-62 NSCLC): > 100 µM
- TGI (SF-268 CNS): > 100 µM
- TGI (SN12C renal): 60.5 µM
